Article PMC9532703, “A novel small molecule RK-019 inhibits FGFR2-amplification gastric cancer cell proliferation and induces apoptosis in vitro and in vivo” (Frontiers in Pharmacology, 2022)

What was measured:
Test in all cases: Kinase selectivity panel
Type in all cases: biochemical
NDR2(h) = molecular target: T1, NDR2(h) (Homo sapiens, UniProt Q9Y2H1); settings: read-out: Inhibition(%) @ 1 µM RK-019
T1 construct: purchased Eurofins Discovery Services (KinaseProfiler)
Procedure: (§1) Median-inhibitory concentration (IC50) and inhibition ratio of kinases by RK-019 was assessed by Eurofins Discovery Services (Dundee, United Kingdom) using the ATP-site competition binding assay in vitro. Firstly, gradient concentration of RK-019 against FGFRs, including FGFR1, FGFR2, FGFR3, and FGFR4, were tested. IC50 value was calculate by the GraphPad Prism software (v8.4.3, GraphPad Software, California, United States). Then, to measure the selectivity prolife of RK-019, a panel of 422 recombinant human kinases was screened at a concentration of 1 µM RK-019. Kinase MAP was drawn by webtools from Cell Signaling Technology, Inc. (www.cellsignal.com).

MINK(h) = molecular target: T2, MINK(h) (Homo sapiens, UniProt Q8N4C8); settings: read-out: Inhibition(%) @ 1 µM RK-019
T2 construct: purchased Eurofins Discovery Services (KinaseProfiler)
Procedure: as §1

EphA2(h) = molecular target: T3, EphA2(h) (Homo sapiens, UniProt P29317); settings: read-out: Inhibition(%) @ 1 µM RK-019
T3 construct: purchased Eurofins Discovery Services (KinaseProfiler)
Procedure: as §1

MRCKα(h) = molecular target: T4, MRCKα(h) (Homo sapiens, UniProt Q5VT25); settings: read-out: Inhibition(%) @ 1 µM RK-019
T4 construct: purchased Eurofins Discovery Services (KinaseProfiler)
Procedure: as §1

SGK(h) = molecular target: T5, SGK(h) (Homo sapiens, UniProt O00141); settings: read-out: Inhibition(%) @ 1 µM RK-019
T5 construct: purchased Eurofins Discovery Services (KinaseProfiler)
Procedure: as §1

Plk1(h) = molecular target: T6, Plk1(h) (Homo sapiens, UniProt P53350); settings: read-out: Inhibition(%) @ 1 µM RK-019
T6 construct: purchased Eurofins Discovery Services (KinaseProfiler)
Procedure: as §1

CDK5/p25(h) = molecular target: T7, CDK5/p25(h) (Homo sapiens, UniProt Q00535); settings: read-out: Inhibition(%) @ 1 µM RK-019
T7 construct: purchased Eurofins Discovery Services (KinaseProfiler)
Procedure: as §1

CLK2(h) = molecular target: T8, CLK2(h) (Homo sapiens, UniProt P49760); settings: read-out: Inhibition(%) @ 1 µM RK-019
T8 construct: purchased Eurofins Discovery Services (KinaseProfiler)
Procedure: as §1

Flt1(h) = molecular target: T9, Flt1(h) (Homo sapiens, UniProt P17948); settings: read-out: Inhibition(%) @ 1 µM RK-019
T9 construct: purchased Eurofins Discovery Services (KinaseProfiler)
Procedure: as §1

Rsk3(h) = molecular target: T10, Rsk3(h) (Homo sapiens, UniProt Q15349); settings: read-out: Inhibition(%) @ 1 µM RK-019
T10 construct: purchased Eurofins Discovery Services (KinaseProfiler)
Procedure: as §1

Abl (Q252H) (h) = molecular target: T11, Abl (Q252H) (h) (Homo sapiens, UniProt P00519, Q252H); settings: read-out: Inhibition(%) @ 1 µM RK-019
T11 construct: purchased Eurofins Discovery Services (KinaseProfiler)
Procedure: as §1

TSSK4(h) = molecular target: T12, TSSK4(h) (Homo sapiens, UniProt Q6SA08); settings: read-out: Inhibition(%) @ 1 µM RK-019
T12 construct: purchased Eurofins Discovery Services (KinaseProfiler)
Procedure: as §1

EphA1(h) = molecular target: T13, EphA1(h) (Homo sapiens, UniProt P21709); settings: read-out: Inhibition(%) @ 1 µM RK-019
T13 construct: purchased Eurofins Discovery Services (KinaseProfiler)
Procedure: as §1

PKBβ(h) = molecular target: T14, PKBβ(h) (Homo sapiens, UniProt P31751); settings: read-out: Inhibition(%) @ 1 µM RK-019
T14 construct: purchased Eurofins Discovery Services (KinaseProfiler)
Procedure: as §1

EGFR(L858R)(h) = molecular target: T15, EGFR(L858R)(h) (Homo sapiens, UniProt P00533, L858R); settings: read-out: Inhibition(%) @ 1 µM RK-019
T15 construct: purchased Eurofins Discovery Services (KinaseProfiler)
Procedure: as §1

SAPK2a(h) = molecular target: T16, SAPK2a(h) (Homo sapiens, UniProt Q16539); settings: read-out: Inhibition(%) @ 1 µM RK-019
T16 construct: purchased Eurofins Discovery Services (KinaseProfiler)
Procedure: as §1

TLK1(h) = molecular target: T17, TLK1(h) (Homo sapiens, UniProt Q9UKI8); settings: read-out: Inhibition(%) @ 1 µM RK-019
T17 construct: purchased Eurofins Discovery Services (KinaseProfiler)
Procedure: as §1

CK1δ(h) = molecular target: T18, CK1δ(h) (Homo sapiens, UniProt P48730); settings: read-out: Inhibition(%) @ 1 µM RK-019
T18 construct: purchased Eurofins Discovery Services (KinaseProfiler)
Procedure: as §1

Ret(h) = molecular target: T19, Ret(h) (Homo sapiens, UniProt P07949)
T19 construct: purchased Eurofins Discovery Services (KinaseProfiler)
Procedure: as §1

ARK5(h) = molecular target: T20, ARK5(h) (Homo sapiens, UniProt O60285); settings: read-out: Inhibition(%) @ 1 µM RK-019
T20 construct: purchased Eurofins Discovery Services (KinaseProfiler)
Procedure: as §1

PIP5K1g(h) = molecular target: T21, PIP5K1g(h) (Homo sapiens, UniProt O60331); settings: read-out: Inhibition(%) @ 1 µM RK-019
T21 construct: purchased Eurofins Discovery Services (KinaseProfiler)
Procedure: as §1

Arg(m) = molecular target: T22, Arg(m) (Mus musculus, UniProt Q4JIM5); settings: read-out: Inhibition(%) @ 1 µM RK-019
T22 construct: purchased Eurofins Discovery Services (KinaseProfiler)
Procedure: as §1

Met(Y1248H)(h) = molecular target: T23, Met(Y1248H)(h) (Homo sapiens, UniProt P08581, Y1230H); settings: read-out: Inhibition(%) @ 1 µM RK-019
T23 construct: purchased Eurofins Discovery Services (KinaseProfiler)
Procedure: as §1

PAK5(h) = molecular target: T24, PAK5(h) (Homo sapiens, UniProt Q9P286); settings: read-out: Inhibition(%) @ 1 µM RK-019
T24 construct: purchased Eurofins Discovery Services (KinaseProfiler)
Procedure: as §1

Fes(h) = molecular target: T25, Fes(h) (Homo sapiens, UniProt P07332); settings: read-out: Inhibition(%) @ 1 µM RK-019
T25 construct: purchased Eurofins Discovery Services (KinaseProfiler)
Procedure: as §1

Axl(h) = molecular target: T26, Axl(h) (Homo sapiens, UniProt P30530); settings: read-out: Inhibition(%) @ 1 µM RK-019
T26 construct: purchased Eurofins Discovery Services (KinaseProfiler)
Procedure: as §1

eEF-2K(h) = molecular target: T27, eEF-2K(h) (Homo sapiens, UniProt O00418); settings: read-out: Inhibition(%) @ 1 µM RK-019
T27 construct: purchased Eurofins Discovery Services (KinaseProfiler)
Procedure: as §1

CRIK(h) = molecular target: T28, CRIK(h) (Homo sapiens, UniProt O14578); settings: read-out: Inhibition(%) @ 1 µM RK-019
T28 construct: purchased Eurofins Discovery Services (KinaseProfiler)
Procedure: as §1

SIK(h) = molecular target: T29, SIK(h) (Homo sapiens, UniProt P57059); settings: read-out: Inhibition(%) @ 1 µM RK-019
T29 construct: purchased Eurofins Discovery Services (KinaseProfiler)
Procedure: as §1

PKG1β(h) = molecular target: T30, PKG1β(h) (Homo sapiens, UniProt Q13976); settings: read-out: Inhibition(%) @ 1 µM RK-019
T30 construct: purchased Eurofins Discovery Services (KinaseProfiler)
Procedure: as §1

EphB3(h) = molecular target: T31, EphB3(h) (Homo sapiens, UniProt P54753); settings: read-out: Inhibition(%) @ 1 µM RK-019
T31 construct: purchased Eurofins Discovery Services (KinaseProfiler)
Procedure: as §1

Src(T341M)(h) = molecular target: T32, Src(T341M)(h) (Homo sapiens, UniProt P12931, T341M); settings: read-out: Inhibition(%) @ 1 µM RK-019
T32 construct: purchased Eurofins Discovery Services (KinaseProfiler)
Procedure: as §1

GCN2(h) = molecular target: T33, GCN2(h) (Homo sapiens, UniProt Q9P2K8); settings: read-out: Inhibition(%) @ 1 µM RK-019
T33 construct: purchased Eurofins Discovery Services (KinaseProfiler)
Procedure: as §1

DYRK1B(h) = molecular target: T34, DYRK1B(h) (Homo sapiens, UniProt Q9Y463); settings: read-out: Inhibition(%) @ 1 µM RK-019
T34 construct: purchased Eurofins Discovery Services (KinaseProfiler)
Procedure: as §1

cKit(D816H)(h) = molecular target: T35, cKit(D816H)(h) (Homo sapiens, UniProt P10721, D816H); settings: read-out: Inhibition(%) @ 1 µM RK-019
T35 construct: purchased Eurofins Discovery Services (KinaseProfiler)
Procedure: as §1

FAK(h) = molecular target: T36, FAK(h) (Homo sapiens, UniProt Q05397); settings: read-out: Inhibition(%) @ 1 µM RK-019
T36 construct: purchased Eurofins Discovery Services (KinaseProfiler)
Procedure: as §1

ALK6(h) = molecular target: T37, ALK6(h) (Homo sapiens, UniProt O00238); settings: read-out: Inhibition(%) @ 1 µM RK-019
T37 construct: purchased Eurofins Discovery Services (KinaseProfiler)
Procedure: as §1

T19 sequence (P07949 29-1114): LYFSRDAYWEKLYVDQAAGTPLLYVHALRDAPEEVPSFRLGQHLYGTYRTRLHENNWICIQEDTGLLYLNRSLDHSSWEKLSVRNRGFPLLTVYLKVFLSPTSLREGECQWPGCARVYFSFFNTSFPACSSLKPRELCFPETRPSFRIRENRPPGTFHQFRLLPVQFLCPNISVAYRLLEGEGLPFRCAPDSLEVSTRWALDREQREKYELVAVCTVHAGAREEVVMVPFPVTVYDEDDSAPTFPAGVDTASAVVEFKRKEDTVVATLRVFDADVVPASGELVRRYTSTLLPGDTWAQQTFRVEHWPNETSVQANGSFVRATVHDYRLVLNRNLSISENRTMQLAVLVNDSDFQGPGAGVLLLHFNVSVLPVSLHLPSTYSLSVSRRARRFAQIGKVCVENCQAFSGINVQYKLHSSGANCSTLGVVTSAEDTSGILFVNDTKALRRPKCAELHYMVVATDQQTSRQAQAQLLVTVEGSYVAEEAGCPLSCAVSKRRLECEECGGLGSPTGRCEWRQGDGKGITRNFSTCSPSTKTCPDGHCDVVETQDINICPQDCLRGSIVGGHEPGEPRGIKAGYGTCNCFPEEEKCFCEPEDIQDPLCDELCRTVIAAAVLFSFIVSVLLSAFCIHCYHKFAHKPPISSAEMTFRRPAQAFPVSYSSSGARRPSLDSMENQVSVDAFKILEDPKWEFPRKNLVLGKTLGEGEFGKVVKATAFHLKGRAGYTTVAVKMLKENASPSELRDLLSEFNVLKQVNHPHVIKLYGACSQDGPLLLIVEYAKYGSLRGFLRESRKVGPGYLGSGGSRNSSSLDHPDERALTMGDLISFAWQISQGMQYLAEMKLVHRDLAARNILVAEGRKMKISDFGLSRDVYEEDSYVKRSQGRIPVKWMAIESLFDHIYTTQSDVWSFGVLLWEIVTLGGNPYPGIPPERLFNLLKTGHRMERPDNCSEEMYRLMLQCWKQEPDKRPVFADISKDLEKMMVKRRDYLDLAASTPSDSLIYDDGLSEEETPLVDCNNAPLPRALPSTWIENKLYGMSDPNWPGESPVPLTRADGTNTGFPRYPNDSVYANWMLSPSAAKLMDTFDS
T4 sequence (Q5VT25 whole entry): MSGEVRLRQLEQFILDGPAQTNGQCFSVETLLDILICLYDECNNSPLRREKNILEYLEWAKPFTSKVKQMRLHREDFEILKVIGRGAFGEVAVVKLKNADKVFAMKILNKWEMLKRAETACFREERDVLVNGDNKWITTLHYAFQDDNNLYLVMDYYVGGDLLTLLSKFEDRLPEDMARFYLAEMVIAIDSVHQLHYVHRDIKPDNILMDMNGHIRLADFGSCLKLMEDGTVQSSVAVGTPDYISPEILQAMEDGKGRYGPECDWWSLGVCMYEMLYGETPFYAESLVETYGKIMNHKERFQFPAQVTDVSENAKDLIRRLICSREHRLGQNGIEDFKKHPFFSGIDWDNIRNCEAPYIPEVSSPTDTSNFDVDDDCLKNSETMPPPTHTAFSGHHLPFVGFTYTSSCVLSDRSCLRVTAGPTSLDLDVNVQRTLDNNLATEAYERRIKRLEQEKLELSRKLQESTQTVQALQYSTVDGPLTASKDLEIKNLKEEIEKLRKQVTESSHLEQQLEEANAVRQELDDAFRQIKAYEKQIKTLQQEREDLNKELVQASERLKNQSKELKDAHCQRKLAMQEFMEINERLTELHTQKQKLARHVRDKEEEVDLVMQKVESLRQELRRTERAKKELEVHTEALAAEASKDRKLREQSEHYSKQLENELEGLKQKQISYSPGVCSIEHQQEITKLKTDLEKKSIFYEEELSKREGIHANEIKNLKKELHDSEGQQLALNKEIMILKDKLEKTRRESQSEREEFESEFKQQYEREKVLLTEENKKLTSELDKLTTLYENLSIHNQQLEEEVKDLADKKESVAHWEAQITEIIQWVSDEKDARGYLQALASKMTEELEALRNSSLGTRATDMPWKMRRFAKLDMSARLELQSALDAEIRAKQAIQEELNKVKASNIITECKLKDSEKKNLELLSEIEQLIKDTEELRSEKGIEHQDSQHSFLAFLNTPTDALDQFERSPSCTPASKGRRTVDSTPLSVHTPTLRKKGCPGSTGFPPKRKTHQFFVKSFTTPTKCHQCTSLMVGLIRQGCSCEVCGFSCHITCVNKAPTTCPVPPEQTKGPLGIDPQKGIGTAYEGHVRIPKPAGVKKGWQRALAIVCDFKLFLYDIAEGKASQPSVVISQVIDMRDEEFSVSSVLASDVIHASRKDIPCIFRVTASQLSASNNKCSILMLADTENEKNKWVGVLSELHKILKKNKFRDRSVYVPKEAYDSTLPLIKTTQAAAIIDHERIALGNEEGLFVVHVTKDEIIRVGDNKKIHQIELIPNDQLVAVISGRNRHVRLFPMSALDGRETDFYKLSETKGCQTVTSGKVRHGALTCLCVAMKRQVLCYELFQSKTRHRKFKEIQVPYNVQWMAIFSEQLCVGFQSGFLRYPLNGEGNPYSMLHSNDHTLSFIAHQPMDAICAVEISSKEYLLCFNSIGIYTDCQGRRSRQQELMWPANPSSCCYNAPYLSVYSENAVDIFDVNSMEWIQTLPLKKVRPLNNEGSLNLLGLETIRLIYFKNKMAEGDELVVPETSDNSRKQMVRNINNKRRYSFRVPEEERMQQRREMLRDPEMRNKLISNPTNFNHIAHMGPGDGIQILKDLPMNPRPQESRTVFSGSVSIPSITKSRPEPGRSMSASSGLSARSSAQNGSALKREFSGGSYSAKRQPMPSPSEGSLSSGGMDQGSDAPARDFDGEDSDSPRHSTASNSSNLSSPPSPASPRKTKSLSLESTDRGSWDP
T7 sequence (Q00535 whole entry): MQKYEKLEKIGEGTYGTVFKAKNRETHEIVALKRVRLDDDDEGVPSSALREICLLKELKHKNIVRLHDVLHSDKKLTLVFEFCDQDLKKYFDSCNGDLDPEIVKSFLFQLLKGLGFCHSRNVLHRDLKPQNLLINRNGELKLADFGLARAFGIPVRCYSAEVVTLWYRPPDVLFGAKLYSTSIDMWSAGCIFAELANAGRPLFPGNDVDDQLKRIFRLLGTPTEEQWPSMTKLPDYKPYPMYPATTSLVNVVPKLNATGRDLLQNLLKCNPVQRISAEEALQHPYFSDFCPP
T7 sequence (Q15078 99-307 partner limits assumed): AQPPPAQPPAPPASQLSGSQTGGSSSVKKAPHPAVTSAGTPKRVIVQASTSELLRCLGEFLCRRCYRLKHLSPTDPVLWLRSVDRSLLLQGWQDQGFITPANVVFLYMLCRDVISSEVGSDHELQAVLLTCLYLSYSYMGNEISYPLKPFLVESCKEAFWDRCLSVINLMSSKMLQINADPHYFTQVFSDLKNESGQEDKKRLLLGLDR
T24 sequence (Q9P286 whole entry): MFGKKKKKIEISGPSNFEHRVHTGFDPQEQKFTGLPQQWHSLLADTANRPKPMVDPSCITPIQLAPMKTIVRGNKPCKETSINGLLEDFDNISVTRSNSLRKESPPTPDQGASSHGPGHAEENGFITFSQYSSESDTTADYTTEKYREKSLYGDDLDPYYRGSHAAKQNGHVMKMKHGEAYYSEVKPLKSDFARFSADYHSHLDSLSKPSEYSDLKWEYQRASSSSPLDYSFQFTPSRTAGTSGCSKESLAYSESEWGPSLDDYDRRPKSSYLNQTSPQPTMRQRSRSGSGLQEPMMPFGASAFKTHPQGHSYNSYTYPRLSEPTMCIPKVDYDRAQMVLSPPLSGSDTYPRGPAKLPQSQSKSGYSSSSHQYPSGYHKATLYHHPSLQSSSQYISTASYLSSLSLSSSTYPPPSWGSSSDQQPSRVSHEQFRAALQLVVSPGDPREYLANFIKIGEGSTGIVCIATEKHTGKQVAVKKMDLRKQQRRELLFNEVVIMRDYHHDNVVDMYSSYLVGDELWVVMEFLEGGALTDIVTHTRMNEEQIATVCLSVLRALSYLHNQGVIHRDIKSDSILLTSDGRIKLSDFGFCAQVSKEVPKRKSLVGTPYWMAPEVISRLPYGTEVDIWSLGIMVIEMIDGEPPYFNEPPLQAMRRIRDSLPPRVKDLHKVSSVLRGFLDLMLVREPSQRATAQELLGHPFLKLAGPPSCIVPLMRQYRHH
T21 sequence (O60331 whole entry): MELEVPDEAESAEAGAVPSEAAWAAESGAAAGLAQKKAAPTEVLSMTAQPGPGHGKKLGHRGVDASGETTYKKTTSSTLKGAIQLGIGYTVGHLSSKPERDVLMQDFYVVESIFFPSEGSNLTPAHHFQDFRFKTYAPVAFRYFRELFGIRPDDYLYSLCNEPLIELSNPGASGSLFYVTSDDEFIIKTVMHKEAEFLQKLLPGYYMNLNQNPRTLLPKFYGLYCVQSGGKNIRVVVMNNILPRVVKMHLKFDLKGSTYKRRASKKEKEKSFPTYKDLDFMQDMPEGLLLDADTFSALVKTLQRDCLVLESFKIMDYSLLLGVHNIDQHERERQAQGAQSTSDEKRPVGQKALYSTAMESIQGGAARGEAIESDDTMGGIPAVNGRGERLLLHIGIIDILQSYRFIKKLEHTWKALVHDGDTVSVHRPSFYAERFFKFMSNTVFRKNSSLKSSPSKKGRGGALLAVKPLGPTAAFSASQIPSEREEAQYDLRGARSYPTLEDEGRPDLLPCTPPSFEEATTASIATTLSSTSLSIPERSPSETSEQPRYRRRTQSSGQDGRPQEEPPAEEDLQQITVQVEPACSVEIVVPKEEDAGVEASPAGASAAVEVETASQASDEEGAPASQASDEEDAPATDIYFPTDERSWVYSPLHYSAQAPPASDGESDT
T16 sequence (Q16539 whole entry): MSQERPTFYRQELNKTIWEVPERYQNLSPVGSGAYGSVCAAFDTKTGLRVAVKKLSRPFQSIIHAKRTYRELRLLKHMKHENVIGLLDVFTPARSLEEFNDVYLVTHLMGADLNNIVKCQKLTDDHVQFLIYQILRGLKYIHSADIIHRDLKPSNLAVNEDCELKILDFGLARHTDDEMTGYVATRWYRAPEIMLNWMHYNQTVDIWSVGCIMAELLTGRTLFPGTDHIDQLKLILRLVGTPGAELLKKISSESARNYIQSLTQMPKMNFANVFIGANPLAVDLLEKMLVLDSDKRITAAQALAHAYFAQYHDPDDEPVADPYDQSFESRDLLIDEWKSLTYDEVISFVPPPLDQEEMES

## COc1cc(OC)cc(N(CCN[C@H](C)CO)c2ccc3ncc(-c4cnn(C)c4)c(=O)n3c2)c1 [RK-019, (R)-7-((3,5-dimethoxyphenyl) (2-((1-hydroxypropan-2-yl)amino)ethyl)amino)-3-(1-methyl-1H-pyrazol-4-yl)-4H-pyrido [1,2-a]pyrimidin-4-one]
NDR2(h)
  activity at 1 µM: 108%
MINK(h)
  activity at 1 µM: 133%
EphA2(h)
  activity at 1 µM: 61%
MRCKα(h)
  activity at 1 µM: 103%
SGK(h)
  activity at 1 µM: 104%
Plk1(h)
  activity at 1 µM: 117%
CDK5/p25(h)
  activity at 1 µM: 112%
CLK2(h)
  activity at 1 µM: 107%
Flt1(h)
  activity at 1 µM: 29%
Rsk3(h)
  activity at 1 µM: 100%
Abl (Q252H) (h)
  activity at 1 µM: 46%
TSSK4(h)
  activity at 1 µM: 106%
EphA1(h)
  activity at 1 µM: 19%
PKBβ(h)
  activity at 1 µM: 84%
EGFR(L858R)(h)
  activity at 1 µM: 114%
SAPK2a(h)
  activity at 1 µM: 100%
TLK1(h)
  activity at 1 µM: 98%
CK1δ(h)
  activity at 1 µM: 94%
Ret(h); RET, 1 µM, read-out: inhibition (hit in panel)
  inhibition at 1 µM: > 90%
Ret(h); Ret(h), read-out: Inhibition(%) @ 1 µM RK-019
  activity at 1 µM: 5%
ARK5(h)
  activity at 1 µM: 146%
PIP5K1g(h)
  activity at 1 µM: 97%
Arg(m)
  activity at 1 µM: 88%
Met(Y1248H)(h)
  activity at 1 µM: 113%
PAK5(h)
  activity at 1 µM: 101%
Fes(h)
  activity at 1 µM: 106%
Axl(h)
  activity at 1 µM: 116%
eEF-2K(h)
  activity at 1 µM: 97%
CRIK(h)
  activity at 1 µM: 117%
SIK(h)
  activity at 1 µM: 89%
PKG1β(h)
  activity at 1 µM: 103%
EphB3(h)
  activity at 1 µM: 89%
Src(T341M)(h)
  activity at 1 µM: 98%
GCN2(h)
  activity at 1 µM: 134%
DYRK1B(h)
  activity at 1 µM: 97%
cKit(D816H)(h)
  activity at 1 µM: 58%
FAK(h)
  activity at 1 µM: 105%
ALK6(h)
  activity at 1 µM: 107%
